From US7514094B2, “Pesticidal composition” (Ishihara Sangyo Kaisha, Ltd., priority 2000, dated 2009)

Columns and labels:
Type in all cases: in vivo
Thrips palmi [1] = experiment: Insecticidal test (2) of Thrips palmi on potted eggplant, spray; settings: Compound No. 1 0 ppm, 7 days after treatment
Experimental: Insecticidal test on (2) of Thrips palmi
An agrochemical liquid diluted to a predetermined concentration was applied by a spray gun to a 10 to 12 folite eggplant having Thrips palmi parasitic thereon in a pot so as to make the eggplant fully wet with the agrochemical liquid and the pot was placed in a greenhouse.
The numbers of the parasitic insects were counted […] before treatment and 7 days after the treatment, and a Percent Control was calculated in the same manner as in Test Example 1, and the results are shown in the following Table 2.
Also, a theoretical mortality value (%) was calculated in accordance with the following Colby formula. When value of the Percent Control is higher than the theoretical value of the Percent Control (in accordance with the Colby formula), it is considered that the pesticidal composition of the present invention achieves a synergistic pesticidal effect. The theoretical values of the Percent Control calculated in accordance with the Colby formula are shown in parentheses in the following Table 2. Theoretical value of the Percent Control=100−(X×Y)/100 • X: 100−(Percent Control in case of treating with Compound No. 1 only) • Y: 100−(Percent Control in case of treating with Chlorfluazuron only)

Thrips palmi [2] = experiment: Insecticidal test of Thrips palmi (test in a vinyl house); settings: 288 h
Experimental: Insecticidal test of Thrips palmi (test in a vinyl house)
An agrochemical liquid diluted to a predetermined concentration was applied by a shoulder sprayer on a 6 to 8 foliate eggplant having Thrips palmi parasitic thereon in an amount of 100 l per 10 are. The numbers of the parasitic insects were counted before treatment and 12 days after the treatment, and a Percent Control was calculated in the same manner as in Test Example 1, and the results are shown in the following Table 4.
Also, a theoretical value of the Percent Control […] calculated in accordance with the Colby formula in the same manner as in Test Example 2 are shown in parenthesis in the following Table 4.

Thrips palmi [3] = experiment: Insecticidal test (1) of Thrips palmi on potted eggplant, spray; settings: Compound No. 1 0 ppm, 3 days after treatment
Experimental: Insecticidal test (1) of Thrips palmi
An agrochemical liquid diluted to a predetermined concentration was applied by a spray gun to a 10 to 12-foliate eggplant having Thrips palmi parasitic thereon in a pot so as to make the eggplant fully wet with the agrochemical liquid and the pot was placed in a greenhouse. The numbers of the parasitic insects were counted before treatment and three days after the treatment, and a Percent Control was calculated in accordance with the following formula and the results are shown in the following Table 1. Percent Control=100−((Ta×Cb)/(Tb×Ca)×100) • Ta: Number of insects per treated plants after treatment • Tb: Number of insects per treated plants before treatment • Ca: Number of insects per untreated plants after treatment • Cb: Number of insects per untreated plants before treatment
Also, a theoretical value of the Percent Control was calculated in accordance with the following Colby formula.
When value of the Percent Control is higher than the theoretical value (%) (in accordance with the Colby formula), it is considered that the pesticidal composition of the present invention achieves a synergistic pesticidal effect. The theoretical values of the Percent Control calculated in accordance with the Colby formula are shown in parentheses in the following Table 1. […]

[4] = tested on: Western Flower Thrips Frankliniella occidentalis; experiment: Insecticidal test of Western Flower Thrips on potted eggplant, spray; settings: 48 h
Text: Insecticidal test of Western Flower Thrips Frankliniella occidentalis
An agrochemical liquid diluted to a predetermined concentration was applied by a spray gun to a 10 to 12 foliate eggplant having Western Flower Thrips Frankliniella occidentalis parasitic thereon in a pot so as to make the eggplant fully wet with the agrochemical liquid, and the pot was placed in a greenhouse. The numbers of the parasitic insects were counted before treatment and 2 days after the treatment, and a Percent Control was calculated in the same manner as in Test Example 1.
Also, a theoretical value of the Percent Control was calculated in accordance with the Colby formula in the same manner as in Test Example 1 and the results are shown in parenthesis in the following Table 3.

Which “Percent Control” value (Thrips palmi [1]; Chlorfluazuron 12.5 ppm) does the source give for O=C(NC(=O)c1c(F)cccc1F)Nc1cc(Cl)c(Oc2ncc(C(F)(F)F)cc2Cl)c(Cl)c1 [Chlorfluazuron (E-2), Chlorfluazuron] here?
The value was 55%.

And the “Percent Control” value (Thrips palmi [1]; Chlorfluazuron 25 ppm)?
Its value is 52%.

And the mortality at 25 ppm (Thrips palmi [2])?
Its mortality at 25 ppm is 58%.

Which results are given for O=C(NC(=O)c1c(F)cccc1F)Nc1ccc(Oc2ccc(C(F)(F)F)cc2Cl)cc1F [Flufenoxuron (E-4), Flufenoxuron]?
Percent Control (Thrips palmi [3]; Flufenoxuron 12.5 ppm): 70%; Percent Control (Thrips palmi [3]; Flufenoxuron 25 ppm): 67%; mortality at 25 ppm [4]: 31%
